Test results published in ChEMBL document CHEMBL1139274, “Synthesis and evaluation of electron-rich curcumin analogues” (Bioorg Med Chem, 2009).

Assays:
MCF7 = assay: Antiproliferative activity against human MCF7 cells after 72 hrs by MTS-PMS assay; assay type: functional, cell-based; settings: MCF7, 72 h
SK-BR-3 = assay: Antiproliferative activity against human SKBR3 cells after 72 hrs by MTS-PMS assay; assay type: functional, cell-based; settings: SK-BR-3, 72 h

SMILES | IC50 (MCF7) | IC50 (SK-BR-3)
COc1ccc(/C=C/C(=O)C(/C=C/CO)C(=O)/C=C/c2ccc(OC)c(OC)c2)cc1OC | 0.796 µM | 1.24 µM
CCOC(=O)CCc1c(/C=C/c2ccc(O)c(OC)c2)noc1/C=C/c1ccc(O)c(OC)c1 | 13.2 µM | 13.9 µM
CCOC(=O)/C=C/C(C(=O)/C=C/c1ccc(OC)c(OC)c1)C(=O)/C=C/c1ccc(OC)c(OC)c1 | 1.28 µM | 1.96 µM
CCOC(=O)CCC(C(=O)/C=C/c1ccc(OC)c(OC)c1)C(=O)/C=C/c1ccc(OC)c(OC)c1 | > 100 µM | > 100 µM
COc1ccc(/C=C/c2n[nH]c(/C=C/c3ccc(OC)c(OC)c3)c2/C=C/C(N)=O)cc1OC | 39.9 µM | 52.6 µM
COc1cc(/C=C/c2cc(/C=C/c3ccc(O)c(OC)c3)on2)ccc1O | 1.76 µM | 4 µM
CCOC(=O)CCc1c(/C=C/c2ccc(OC)c(OC)c2)noc1/C=C/c1ccc(OC)c(OC)c1 | > 100 µM | > 100 µM
CCOC(=O)CCC(C(=O)/C=C/c1ccc(O)c(OC)c1)C(=O)/C=C/c1ccc(O)c(OC)c1 | 1.96 µM | 4.38 µM
CCOC(=O)CCc1c(/C=C/c2ccc(OC)c(OC)c2)n[nH]c1/C=C/c1ccc(OC)c(OC)c1 | 10.1 µM | 11.7 µM
COc1ccc(/C=C/c2cc(/C=C/c3ccc(OC)c(OC)c3)[nH]n2)cc1OC | 12.7 µM | 1.58 µM
COc1ccc(/C=C/C(=O)C(C)C(=O)/C=C/c2ccc(OC)c(OC)c2)cc1OC | 1.09 µM | 1.02 µM
COc1ccc(/C=C/C(=O)C(/C=C/C(N)=O)C(=O)/C=C/c2ccc(OC)c(OC)c2)cc1OC | 5.35 µM | 9.83 µM
COC(=O)/C=C/c1c(/C=C/c2ccc(OC)c(OC)c2)n[nH]c1/C=C/c1ccc(OC)c(OC)c1 | 49.5 µM | > 100 µM
COc1ccc(/C=C/c2cc(/C=C/c3ccc(OC)c(OC)c3)on2)cc1OC | 59.5 µM | > 100 µM
CCOC(=O)CCc1c(/C=C/c2ccc(O)c(OC)c2)n[nH]c1/C=C/c1ccc(O)c(OC)c1 | 6.01 µM | 5.6 µM
CCOc1ccc(/C=C/c2n[nH]c(/C=C/c3ccc(OCC)c(OC)c3)c2/C=C/C(=O)OC)cc1OC | 11.4 µM | 5.99 µM
COc1cc(/C=C/C(=O)CC(=O)/C=C/c2ccc(O)c(OC)c2)ccc1O [CURCUMIN] | 5.58 µM | 2.11 µM
COc1ccc(/C=C/C(=O)CC(=O)/C=C/c2ccc(OC)c(OC)c2)cc1OC [TETRAMETHOXYCURCUMIN] | 1.07 µM | 0.955 µM
COC(=O)/C=C/C(C(=O)/C=C/c1ccc(OC)c(OC)c1)C(=O)/C=C/c1ccc(OC)c(OC)c1 | 0.512 µM | 0.564 µM
COc1ccc(/C=C/c2n[nH]c(/C=C/c3ccc(OC)c(OC)c3)c2/C=C/CO)cc1OC | > 100 µM | > 100 µM
COc1cc(/C=C/c2cc(/C=C/c3ccc(O)c(OC)c3)[nH]n2)ccc1O [CURCUMIN PYRAZOLE] | 4.19 µM | 0.258 µM
COc1ccc(/C=C/c2n[nH]c(/C=C/c3ccc(OC)c(OC)c3)c2C)cc1OC | 8.16 µM | > 100 µM
COc1ccc(/C=C/c2noc(/C=C/c3ccc(OC)c(OC)c3)c2C)cc1OC | 55.7 µM | 42.5 µM
